Like-named read-outs stand apart in the source and are kept apart here.
Key:
H1975 lung cancer cells = test: MTT assay, growth of H1975 lung cancer cells; assay type: cell-based; details: Homo sapiens
[1] = test system: MDA-MB231 breast cancer cells; test: MTT assay, growth of MDA-MB231 breast cancer cells; assay type: cell-based; details: Homo sapiens, MDA-MB-231, MDA-MB231 triple-negative breast cancer cell line, Table 3
Method: The inhibitory effect of the exemplary compounds against MDA-MB231 breast cancer cell and H1975 lung cancer cell was evaluated. The cytotoxic activity of test compounds was examined by performing a MTT assay.

[2] = NCI-H1975, H1975, MTT, Table 2, read-out: IC50 against the growth of H1975 lung cancer cells
[3] = NCI-H1975, read-out: IC50 against the growth of H1975 lung cancer cells
[4] = NCI-H1975, H1975 lung cancer cell line, MTT, Table 3, read-out: IC50 H1975

SMILES	melting point	IC50 (H1975 lung cancer cells; [2])	IC50 [1]	IC50 (H1975 lung cancer cells; [4])	IC50 (H1975 lung cancer cells; [3])
CCCCOc1ccc(-c2nc(C(N)=O)c3[nH]c(=O)n(-c4ccccc4OC)c3n2)cc1 [Compound 5c, 2-(4-Butoxyphenyl)-9-(2-methoxyphenyl)-8-oxopurine-6-carboxamide]	268.7 to 270.2 °C	4.66 ± 0.05 µM			
COC(=O)c1cccc(-n2c(=O)[nH]c3c(C(N)=O)nc(-c4ccc(OC)c(O)c4)nc32)c1 [Compound 5j, 2-(3-Hydroxy-4-methoxyphenyl)-9-(3-methoxycarbonylphenyl)-8-oxopurine-6-carboxamide]	333.3 to 334.3 °C				0.35 ± 0.01 µM
CCOc1ccc(-c2nc(C(N)=O)c3[nH]c(=O)n(-c4ccc([N+](=O)[O-])cc4)c3n2)cc1 [Compound 5k, 2-(4-Ethoxyphenyl)-9-(4-nitrophenyl)-8-oxopurine-6-carboxamide]	307.6 to 309 °C		26 µM	7 µM	
CCOc1ccc(-c2nc(C(N)=O)c3[nH]c(=O)n(-c4cccc(C(=O)O)c4)c3n2)cc1 [Compound 6e, 2-(4-Ethoxyphenyl)-9-(3-carboxy)phenyl-8-oxopurine-6-carboxamide]		7.91 ± 0.18 µM			
CCCCCCNC(=O)c1cccc(-n2c(=O)[nH]c3c(C(N)=O)nc(-c4ccc(OCC)cc4)nc32)c1 [Compound 8a, 2-(4-Ethoxyphenyl)-9-(3-hexylcarbamoyl)phenyl-8-oxopurine-6-carboxamide]		0.49 ± 0.1 µM			
CCCCCCCCCCCCNC(=O)c1cccc(-n2c(=O)[nH]c3c(C(N)=O)nc(-c4ccc(OCC)cc4)nc32)c1 [Compound 8b, 2-(4-Ethoxyphenyl)-9-(3-dodecylcarbamoyl)phenyl-8-oxopurine-6-carboxamide]		10.5 ± 0.25 µM			
CCOc1ccc(-c2nc(C(N)=O)c3[nH]c(=O)n(-c4cccc(C(=O)NCCCCCN=[N+]=[N-])c4)c3n2)cc1 [Compound 8c, 2-(4-Ethoxyphenyl)-9-[3-(5-azidopentylcarbamoyl)]phenyl-8-oxopurine-6-carboxamide]		0.39 ± 0.01 µM			
CCOc1ccc(-c2nc(C(N)=O)c3[nH]c(=O)n(-c4cccc(C(=O)NCCCCCNC(=O)OC(C)(C)C)c4)c3n2)cc1 [Compound 8d, 2-(4-Ethoxyphenyl)-9-[3-(5-tert-butoxycarbonylamino)pentylcarbamoyl]phenyl-8-oxopurine-6-carboxamide]		15.5 ± 1.96 µM			
CCOc1ccc(-c2nc(C(N)=O)c3[nH]c(=O)n(-c4cccc(C(=O)NCCCCCNC(=O)CCCC[C@@H]5SC[C@@H]6NC(=O)N[C@@H]65)c4)c3n2)cc1 [Compound 8f]					26.3 ± 0.31 µM
COc1ccc(-c2nc(C(N)=O)c3nc(S)n(-c4ccccc4)c3n2)cc1O [Compound 10b, 2-(3-Hydroxy-4-methoxyphenyl)-8-mercapto-9-phenylpurine-6-carboxamide]	368.9 to 369.7 °C (dec.)				0.24 ± 0.04 µM
CCCCSc1nc2c(C(N)=O)nc(-c3ccc(OCC)cc3)nc2n1-c1ccccc1 [Compound 11b, 8-(Butylthio)-2-(4-ethoxyphenyl)-9-phenylpurine-6-carboxamide]		6.37 ± 0.51 µM			
CCOc1ccc(-c2nc(C(N)=O)c3nc(SCC(=O)N4CCN(C(=O)OC(C)(C)C)CC4)n(-c4ccccc4)c3n2)cc1 [Compound 11d, 2-(4-Ethoxyphenyl)-9-phenyl-8-{[(4-tert-butoxycarbonyl)piperazinocarbonyl]methylthio}purine-6-carb oxamide]		1.8 µM			
CCOc1ccc(-c2nc(C(N)=O)c3nc(SCC(=O)OC)n(-c4ccccc4)c3n2)cc1 [Compound 11f, 2-(4-Ethoxyphenyl)-8-(methoxycarbonylmethylthio)-9-phenylpurine-6-carb oxamide]		2.1 µM			
CCOc1ccc(-c2nc(C(N)=O)c3nc(SCC(=O)O)n(-c4ccccc4)c3n2)cc1 [Compound 11g, 8-(Carboxymethylthio)-2-(4-ethoxyphenyl)-9-phenylpurine-6-carboxamide]		3.94 ± 0.06 µM			
CCOc1ccc(-c2nc(C#N)c3[nH]c(=O)n(-c4ccc(C(=O)OC)cc4)c3n2)cc1 [Compound 12b, 2-(4-Ethoxyphenyl)-9-(4-methoxycarbonylphenyl)-8-oxopurine-6-carbonitrile]	311.1 to 312.2 °C		3.9 µM	9.8 µM	
CCOc1ccc(-c2nc(C#N)c3[nH]c(=O)n(-c4ccc([N+](=O)[O-])cc4)c3n2)cc1 [Compound 12d, 2-(4-Ethoxyphenyl)-9-(4-nitrophenyl)-8-oxopurine-6-carbonitrile]	293.2 to 294.8 °C		2.6 µM	6.2 µM	
CCOc1ccc(-c2nc(C#N)c3[nH]c(=O)n(-c4cccc([N+](=O)[O-])c4)c3n2)cc1 [Compound 12e, 2-(4-Ethoxyphenyl)-9-(3-nitrophenyl)-8-oxopurine-6-carbonitrile]	296.1 to 297.8 °C		3.5 µM	4.1 µM	
COc1ccc(-c2nc(C#N)c3[nH]c(=O)n(-c4ccccc4OC)c3n2)cc1O [Compound 12f, 2-(3-Hydroxy-4-methoxyphenyl)-9-(2-methoxyphenyl)-8-oxopurine-6-carbonitrile]	294 to 296 °C	25.8 µM		25.8 µM	
CCCCNC(=N)c1nc(-c2ccc(OCC)cc2)nc2c1[nH]c(=O)n2-c1ccccc1OC [Compound 13a, 2-(4-Ethoxyphenyl)-9-(2-methoxyphenyl)-8-oxopurine-6-(N-butyl)carboximidamide]	375 to 377 °C		11.6 µM	79 µM	
COc1ccc(-c2nc(C(=N)NO)c3[nH]c(=O)n(-c4ccccc4OC)c3n2)cc1O [Compound 14f, 2-(3-Hydroxy-4-methoxyphenyl)-9-(2-methoxyphenyl)-8-oxopurine-6-(N-hydroxy)carboximidamide]	226 to 228 °C	2.8 µM		2.8 µM	
CCOc1ccc(-c2nc(C#N)c3nc(OC(=O)OC(C)(C)C)n(-c4ccccc4OC)c3n2)cc1 [Compound 17b, Tert-butyl 6-cyano-2-(4-ethoxyphenyl)-9-(2-methoxyphenyl)purin-8-yl carbonate]	278 to 280 °C		22 µM	13 µM	
CCOc1ccc(-c2nc(C#N)c3nc(OC(=O)OCc4ccccc4)n(-c4ccccc4OC)c3n2)cc1 [Compound 17c, Benzyl 6-cyano-2-(4-ethoxyphenyl)-9-(2-methoxyphenyl)purin-8-yl carbonate]	228 to 230 °C		48.6 µM	34 µM	
CCOc1ccc(-c2nc(C#N)c3nc(OC(=O)Oc4ccccc4)n(-c4ccccc4OC)c3n2)cc1 [Compound 17d, 6-Cyano-2-(4-ethoxyphenyl)-9-(2-methoxyphenyl)purin-8-yl phenyl carbonate]	247 to 249 °C		16.9 ± 11.5 µM	25.1 ± 0.4 µM	
CCOc1ccc(-c2nc(C(=O)NOC)c3[nH]c(=O)n(-c4ccccc4OC)c3n2)cc1 [Compound 19b, 2-(4-Ethoxyphenyl)-9-(2-methoxyphenyl)-8-oxopurine-6-(N-methoxy)carb oxamide]	260.5 to 261.6 °C		2.8 µM	0.3 µM	

Second part, led by results:

melting point	IC50 (H1975 lung cancer cells; [2])	IC50 [1]	IC50 (H1975 lung cancer cells; [4])	SMILES	IC50 (H1975 lung cancer cells; [3])
273.7 to 274.5 °C		65.3 µM	60.9 µM	CCOc1ccc(-c2nc(C(=O)NN)c3[nH]c(=O)n(-c4ccccc4OC)c3n2)cc1 [Compound 20a, 2-(4-Ethoxyphenyl)-9-(2-methoxyphenyl)-8-oxopurine-6-carbohydrazide]	
279.6 to 281 °C		47.2 µM	6.9 µM	CCOc1ccc(-c2nc(C(=O)NN(C)C)c3[nH]c(=O)n(-c4ccccc4OC)c3n2)cc1 [Compound 20b, 2-(4-Ethoxyphenyl)-9-(2-methoxyphenyl)-8-oxopurine-6-(N′,N′-dimethyl)carbohydrazide]	
229 to 231 °C		87 µM	30 µM	CCOc1ccc(-c2nc(C(=N)NO)c3c(n2)n(-c2ccccc2OC)c(=O)n3C)cc1 [Compound 21a, 2-(4-Ethoxyphenyl)-9-(2-methoxyphenyl)-7-methyl-8-oxopurine-6-(N-hydroxy)carboximidamide]	
		56 µM	42 µM	CCOc1ccc(-c2nc(C(=N)NOC)c3c(n2)n(-c2ccccc2OC)c(=O)n3C)cc1 [Compound 21b, 2-(4-Ethoxyphenyl)-9-(2-methoxyphenyl)-7-methyl-8-oxopurine-6-(N-methoxy)carboximidamide]	
	41.6 ± 11.6 µM		41.6 ± 11.6 µM	CCOc1ccc(-c2nc(C(N)=O)c3nc(SC(C)=O)n(-c4ccccc4)c3n2)cc1 [Compound 26a, 8-(Acetylthio)-2-(4-ethoxyphenyl)-9-phenylpurine-6-carboxamide]	
278.5 to 280 °C				CCOc1ccc(-c2nc(C#N)c3nc(S)n(-c4ccccc4)c3n2)cc1 [Compound 27a, 2-(4-Ethoxyphenyl)-8-mercapto-9-phenylpurine-6-carboxnitrile]	
179.2 to 180.4 °C				CCOc1ccc(-c2nc(C#N)c3nc(SC(=O)OCc4ccccc4)n(-c4ccccc4)c3n2)cc1 [Compound 28a, 8-(Benzyloxycarbonylthio)-2-(4-ethoxyphenyl)-9-phenylpurine-6-carboxnitrile]	
297 to 299 °C				CCOc1ccc(-c2nc(C#N)c3nc(N)n(-c4ccccc4OC)c3n2)cc1 [Compound 33a, 8-Amino-2-(4-ethoxyphenyl)-9-(2-methoxyphenyl)purine-6-carbonitrile]	
273 to 275 °C			74 µM	CCOc1ccc(-c2nc(C#N)c3nc(N4CCOCC4)n(-c4ccccc4OC)c3n2)cc1 [Compound 33b, 2-(4-Ethoxyphenyl)-9-(2-methoxyphenyl)-8-morpholinopurine-6-carbonitrile]	
260 to 262 °C (dec.)				CCOc1ccc(-c2nc(C#N)c3nc(NC(=O)OC(C)(C)C)n(-c4ccccc4OC)c3n2)cc1 [Compound 34a, Tert-butyl (6-cyano-2-(4-ethoxyphenyl)-9-(2-methoxyphenyl)purin-8-yl)carbamate]	

Reference: patent US10765681B2 (Academia Sinica, priority 2016, dated 2020)
